Test results: paper PMC5207512, “Inhibition of Helicobacter pylori and Its Associated Urease by Palmatine: Investigation on the Potential Mechanism” (PLoS ONE, 2017)
“And” between values parts separate entries of the source, which are not always exact repeats. Equal values may be shown once. Read-outs that look alike come from different tables or passages of the source.

Assays:
Format in all cases: biochemical
[1] = biological target: T1, jack bean urease (JBU) (Canavalia ensiformis, UniProt P07374); assay: biochemical; conditions: read-out: Residual urease activity (percent of control), Fig 5B JBU, thiols 1.25 mM, Pal 0.5 mM, 20+20 min
T1 construct: Urease from jack bean (Canavalia ensiformis, JBU); purchased Sigma-Aldrich (St Louis, MO, USA) type III (catalogue number not given)
T1 sequence (P07374 whole entry, looked up): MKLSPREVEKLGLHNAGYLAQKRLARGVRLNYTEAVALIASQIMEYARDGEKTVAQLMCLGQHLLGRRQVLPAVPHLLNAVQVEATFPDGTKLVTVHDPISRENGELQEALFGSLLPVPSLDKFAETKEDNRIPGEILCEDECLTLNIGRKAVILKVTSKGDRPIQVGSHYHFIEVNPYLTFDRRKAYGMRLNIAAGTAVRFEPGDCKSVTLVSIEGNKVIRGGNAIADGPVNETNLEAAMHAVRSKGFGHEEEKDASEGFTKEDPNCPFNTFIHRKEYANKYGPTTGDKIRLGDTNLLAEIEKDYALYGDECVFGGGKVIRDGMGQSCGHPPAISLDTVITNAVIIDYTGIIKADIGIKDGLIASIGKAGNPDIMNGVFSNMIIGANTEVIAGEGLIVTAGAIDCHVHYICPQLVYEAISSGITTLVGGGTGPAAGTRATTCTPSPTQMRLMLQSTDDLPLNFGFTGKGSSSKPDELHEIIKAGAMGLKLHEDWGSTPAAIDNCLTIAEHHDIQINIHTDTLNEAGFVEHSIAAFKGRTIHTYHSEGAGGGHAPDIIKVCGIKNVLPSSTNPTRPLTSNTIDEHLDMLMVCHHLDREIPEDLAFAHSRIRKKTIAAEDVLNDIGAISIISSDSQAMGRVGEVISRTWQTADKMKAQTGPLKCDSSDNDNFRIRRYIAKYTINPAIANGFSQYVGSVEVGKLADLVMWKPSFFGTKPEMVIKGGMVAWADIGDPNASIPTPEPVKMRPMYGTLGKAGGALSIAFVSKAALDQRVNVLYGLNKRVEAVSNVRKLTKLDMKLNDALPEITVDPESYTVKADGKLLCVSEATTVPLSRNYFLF
Method: (§1) The reaction mixture consisted of 0.25 mg/mL HPU or JBU, 0.5 mM Pal (for both HPU and JBU), and 1.25 mM thiols (DTT, GSH, or L-cys) in 20 mM HEPES buffer (pH 7.5). The components of the incubation mixture were mixed according to three procedures: (1) Urease was added to the mixture after a 20-min co-incubation of Pal with thiol. (2) Pal was added to the mixture after a 20-min co-incubation of urease with thiol. (3) Thiols were added to the mixture after a 20-min co-incubation of urease with Pal. The incubation mixture containing all components was incubated for further 20 min and the activity of urease was determined. The experiments were triply performed.

[2] = biological target: T2, H. pylori urease (HPU) (Helicobacter pylori, UniProt P69996); assay: biochemical; conditions: read-out: Residual urease activity (percent of control), Fig 5A HPU, thiols 1.25 mM, Pal 0.5 mM, 20+20 min
T2 construct: HPU was prepared as previously described; made in house
T2 sequence (P14916 whole entry): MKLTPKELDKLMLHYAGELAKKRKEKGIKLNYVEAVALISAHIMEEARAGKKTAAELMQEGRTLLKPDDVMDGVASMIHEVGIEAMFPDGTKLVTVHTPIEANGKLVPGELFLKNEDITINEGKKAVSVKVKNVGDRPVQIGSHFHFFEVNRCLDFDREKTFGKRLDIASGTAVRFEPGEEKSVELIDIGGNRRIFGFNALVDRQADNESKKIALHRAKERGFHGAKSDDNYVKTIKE
T2 sequence (P69996 whole entry): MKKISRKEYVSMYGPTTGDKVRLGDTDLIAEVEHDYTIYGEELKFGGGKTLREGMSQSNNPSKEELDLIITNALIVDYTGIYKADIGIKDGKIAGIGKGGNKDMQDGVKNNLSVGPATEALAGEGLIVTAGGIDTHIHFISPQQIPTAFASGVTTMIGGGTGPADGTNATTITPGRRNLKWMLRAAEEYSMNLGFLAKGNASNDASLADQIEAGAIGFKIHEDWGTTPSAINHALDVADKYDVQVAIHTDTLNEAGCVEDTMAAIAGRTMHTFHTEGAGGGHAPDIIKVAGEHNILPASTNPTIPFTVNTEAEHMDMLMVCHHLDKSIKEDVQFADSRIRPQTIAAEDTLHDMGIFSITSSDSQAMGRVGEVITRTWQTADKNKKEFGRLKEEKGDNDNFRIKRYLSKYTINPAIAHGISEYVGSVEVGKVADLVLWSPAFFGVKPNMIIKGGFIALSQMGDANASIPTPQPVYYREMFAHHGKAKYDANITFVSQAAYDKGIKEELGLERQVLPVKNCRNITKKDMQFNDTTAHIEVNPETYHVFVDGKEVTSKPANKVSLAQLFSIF
Method: as §1

[3] = biological target: T1, jack bean urease (JBU); assay: Urease inhibition test (modified Berthelot method)
Method: (§2) HPU was prepared as previously described. The standard urease assay mixture included 150 mM urea in 20 mM HEPES buffer (pH 7.5). After addition of small aliquots of enzyme-containing solution of urease, the assay ran for 20 min. The enzymatic activity was evaluated spectrophotometrically by detecting the ammonia concentration at 595 nm according to the modified Berthelot (phenol-hypochlorite) method. Urease activity was estimated with JBU as a standard, the specific activity of HPU was determined to be 17.0 U/mg. One unit of urease activity was defined as 1 μmol of ammonia released per min at 25°C. The amount of protein was determined by commercial Bradford Protein Assay Kit with BSA as a standard. The amount of ammonia released was decided from a standard curve. The activity of uninhibited urease was defined as the control activity of 100%.
(§3) Reaction mixtures comprising 0.25 mg/mL HPU or JBU and different concentrations of Pal or AHA at the volume ratio of 1:1, were incubated at 37°C in 20 mM HEPES buffer (pH 7.5) in the absence of urea. The reactions were initiated by mixing the urease and the inhibitor. The preincubation mixture was withdrawn at 20 min and immediately transferred into the standard assay mixtures for urease residual activity determination. Inhibition rate (%) was calculated following the formula: I % = (1-activity with inhibitors/activity without inhibitors) × 100%. The IC50 was expressed as the concentration of inhibitor that decreased urease activity by 50% and calculated by plotting the percent of inhibition. The experiments were triply performed.

[4] = biological target: T2, H. pylori urease (HPU); assay: Urease inhibition test (modified Berthelot method)
Method: as §2, §3

[5] = biological target: T1, jack bean urease (JBU); assay: biochemical; conditions: for activity at 500 µM: read-out: Urease activity, Fig 6B JBU, Pal 0.5 mM, DTT 1.25 mM
Method: (§4) The reactivation of Pal-inactivated urease was investigated by DTT application. The preincubation mixture consisted of 0.25 mg/mL HPU or JBU and 0.5 mM Pal in 20 mM HEPES buffer (pH 7.5). Then the mixture was further incubated with 1.25 mM DTT after 20 min. The enzymatic activity of urease was determined before and after the addition of DTT. After a while, aliquots were withdrawn and the urease residual activity was determined. The experiments were repeated three times.

[6] = biological target: T2, H. pylori urease (HPU); assay: biochemical; conditions: for activity at 500 µM: read-out: Urease activity, Fig 6A HPU, Pal 0.5 mM, DTT 1.25 mM
Method: as §4

COc1cc2c(cc1OC)-c1cc3ccc(OC)c(OC)c3c[n+]1CC2 [Pal, Palmatine]
remaining activity at 500 µM ([1]; order (Protector+Pal)+urease): 43.3%
remaining activity at 500 µM ([1]; order (urease+Pal)+Protector): 38%
remaining activity at 500 µM ([1]; order (urease+Protector)+Pal): 35.4%
remaining activity at 500 µM ([2]; order (Protector+Pal)+urease): 19.8%
remaining activity at 500 µM ([2]; order (urease+Pal)+Protector): 20%
remaining activity at 500 µM ([2]; order (urease+Protector)+Pal): 16.7%
IC50 [3]: 30 µM
Residual activity ([3]; Fig 2B JBU, Pal 0.0149062 mM, replicates): 54.1182% and 57.7693%
Residual activity ([3]; Fig 2B JBU, Pal 0.0298125 mM, replicates): 50.3004% and 49.1799%
Residual activity ([3]; Fig 2B JBU, Pal 0.059625 mM, replicates): 40.1092% and 41.6437%
Residual activity ([3]; Fig 2B JBU, Pal 0.11925 mM, replicates): 37.8863% and 32.26%
Residual activity ([3]; Fig 2B JBU, Pal 0.2385 mM, replicates): 38.5515% and 35.644%
Residual activity ([3]; Fig 2B JBU, Pal 0.477 mM, replicates): 32.5751% and 31.4745%
Residual activity ([3]; Fig 2B JBU, Pal 0.954 mM, replicates): 26.1588% and 18.0767%
Residual activity ([3]; Fig 2D JBU, head prints Pal 0.00188802 mM, replicates): 95.2237% and 88.9105%
Residual activity ([3]; Fig 2D JBU, head prints Pal 0.00377605 mM, replicates): 91.7722% and 82.8804%
Residual activity ([3]; Fig 2D JBU, head prints Pal 0.00755209 mM, replicates): 77.2806% and 78.6217%
Residual activity ([3]; Fig 2D JBU, head prints Pal 0.0151042 mM, replicates): 56.6996% and 59.4273%
Residual activity ([3]; Fig 2D JBU, head prints Pal 0.0302084 mM, replicates): 37.3504% and 39.7719%
Residual activity ([3]; Fig 2D JBU, head prints Pal 0.0604167 mM, replicates): 24.6949% and 22.6887%
Residual activity ([3]; Fig 2D JBU, head prints Pal 0.120833 mM, replicates): 12.8879% and 13.7831%
Residual activity ([3]; Fig 2D JBU, head prints Pal 0.241667 mM, replicates): 10.3312% and 12.3028%
remaining activity at 14.9062 µM ([3]; read-out: Residual activity, Fig 2B JBU, Pal 0.0149062 mM, replicates): 55.1%
remaining activity at 29.8125 µM ([3]; read-out: Residual activity, Fig 2B JBU, Pal 0.0298125 mM, replicates): 49%
remaining activity at 59.625 µM ([3]; read-out: Residual activity, Fig 2B JBU, Pal 0.059625 mM, replicates): 45.6%
remaining activity at 119.25 µM ([3]; read-out: Residual activity, Fig 2B JBU, Pal 0.11925 mM, replicates): 38.6%
remaining activity at 238.5 µM ([3]; read-out: Residual activity, Fig 2B JBU, Pal 0.2385 mM, replicates): 36.2%
remaining activity at 477 µM ([3]; read-out: Residual activity, Fig 2B JBU, Pal 0.477 mM, replicates): 25.7%
remaining activity at 954 µM ([3]; read-out: Residual activity, Fig 2B JBU, Pal 0.954 mM, replicates): 27.1%
remaining activity at 1.88802 µM ([3]; read-out: Residual activity, Fig 2D JBU, head prints Pal 0.00188802 mM, replicates): 94.8%
remaining activity at 3.77605 µM ([3]; read-out: Residual activity, Fig 2D JBU, head prints Pal 0.00377605 mM, replicates): 88.2%
remaining activity at 7.55209 µM ([3]; read-out: Residual activity, Fig 2D JBU, head prints Pal 0.00755209 mM, replicates): 75.2%
remaining activity at 15.1042 µM ([3]; read-out: Residual activity, Fig 2D JBU, head prints Pal 0.0151042 mM, replicates): 55.4%
remaining activity at 30.2084 µM ([3]; read-out: Residual activity, Fig 2D JBU, head prints Pal 0.0302084 mM, replicates): 36.9%
remaining activity at 60.4167 µM ([3]; read-out: Residual activity, Fig 2D JBU, head prints Pal 0.0604167 mM, replicates): 25.4%
remaining activity at 120.833 µM ([3]; read-out: Residual activity, Fig 2D JBU, head prints Pal 0.120833 mM, replicates): 15.7%
remaining activity at 241.667 µM ([3]; read-out: Residual activity, Fig 2D JBU, head prints Pal 0.241667 mM, replicates): 11.3%
IC50 [4]: 530 ± 10 µM
Residual activity ([4]; Fig 2A HPU, Pal 0.0149062 mM, replicates): 97.2774% and 99.8185%
Residual activity ([4]; Fig 2A HPU, Pal 0.0298125 mM, replicates): 98.3238% and 98.6586%
Residual activity ([4]; Fig 2A HPU, Pal 0.059625 mM, replicates): 95.8144% and 91.8003%
Residual activity ([4]; Fig 2A HPU, Pal 0.11925 mM, replicates): 84.6333% and 83.9334%
Residual activity ([4]; Fig 2A HPU, Pal 0.2385 mM, replicates): 71.2237% and 68.6838%
Residual activity ([4]; Fig 2A HPU, Pal 0.477 mM, replicates): 44.3368% and 41.1296%
Residual activity ([4]; Fig 2A HPU, Pal 0.954 mM, replicates): 18.2056% and 23.6712%
Residual activity ([4]; Fig 2C HPU, head prints Pal 0.00755209 mM, replicates): 104.061% and 86.9419%
Residual activity ([4]; Fig 2C HPU, head prints Pal 0.0151042 mM, replicates): 98.3628% and 84.9736%
Residual activity ([4]; Fig 2C HPU, head prints Pal 0.0302084 mM, replicates): 80.4878% and 87.2209% and 66.9067%
Residual activity ([4]; Fig 2C HPU, head prints Pal 0.0604167 mM, replicates): 64.023% and 48.6958%
Residual activity ([4]; Fig 2C HPU, head prints Pal 0.120833 mM, replicates): 34.9663% and 29.6848%
Residual activity ([4]; Fig 2C HPU, head prints Pal 0.241667 mM, replicates): 20.774% and 15.3785%
remaining activity at 14.9062 µM ([4]; read-out: Residual activity, Fig 2A HPU, Pal 0.0149062 mM, replicates): 98.5%
remaining activity at 29.8125 µM ([4]; read-out: Residual activity, Fig 2A HPU, Pal 0.0298125 mM, replicates): 92%
remaining activity at 59.625 µM ([4]; read-out: Residual activity, Fig 2A HPU, Pal 0.059625 mM, replicates): 88%
remaining activity at 119.25 µM ([4]; read-out: Residual activity, Fig 2A HPU, Pal 0.11925 mM, replicates): 77.1%
remaining activity at 238.5 µM ([4]; read-out: Residual activity, Fig 2A HPU, Pal 0.2385 mM, replicates): 66.8%
remaining activity at 477 µM ([4]; read-out: Residual activity, Fig 2A HPU, Pal 0.477 mM, replicates): 49.6%
remaining activity at 954 µM ([4]; read-out: Residual activity, Fig 2A HPU, Pal 0.954 mM, replicates): 24.2%
remaining activity at 7.55209 µM ([4]; read-out: Residual activity, Fig 2C HPU, head prints Pal 0.00755209 mM, replicates): 94.8%
remaining activity at 15.1042 µM ([4]; read-out: Residual activity, Fig 2C HPU, head prints Pal 0.0151042 mM, replicates): 92.1%
remaining activity at 60.4167 µM ([4]; read-out: Residual activity, Fig 2C HPU, head prints Pal 0.0604167 mM, replicates): 56.1%
remaining activity at 120.833 µM ([4]; read-out: Residual activity, Fig 2C HPU, head prints Pal 0.120833 mM, replicates): 31%
remaining activity at 241.667 µM ([4]; read-out: Residual activity, Fig 2C HPU, head prints Pal 0.241667 mM, replicates): 23.2%
activity at 500 µM ([5]; 5 min, incubation time 5 min): 32.2%
activity at 500 µM ([5]; 10 min, incubation time 10 min): 20.5%
activity at 500 µM ([5]; 0.25 h, incubation time 15 min): 21.6%
activity at 500 µM ([5]; 20 min, incubation time 20 min): 30.9%
reversibility of inhibition ([5]; JBU, DTT reactivation assay): reversible
activity at 500 µM ([6]; 5 min, incubation time 5 min): 54%
activity at 500 µM ([6]; 10 min, incubation time 10 min): 49.3%
activity at 500 µM ([6]; 0.25 h, incubation time 15 min): 49.3%
activity at 500 µM ([6]; 20 min, incubation time 20 min): 31.8%
reversibility of inhibition ([6]; HPU, DTT reactivation assay): reversible
